Counter-ions that a name gives are not always drawn.
Legend:
GSK3β = GSK3β (Homo sapiens, UniProt P49841); assay: Inhibitory activity against GSK3β (33P-ATP phosphorylation of prephosphorylated GS1 peptide, two protocols); assay type: biochemical; details: protocol (first or second) not specified
Protocol: Inhibitory Activity of the Medicament of the Present Invention Against GSK3β
Two different protocols can be used.
In a first protocol: 7.5 μM of prephosphorylated GS1 peptide and 10 μM ATP (containing 300,000 cpm of 33P-ATP) were incubated in 25 mM Tris-HCl, pH 7.5, 0.6 mM DTT, 6 mM MgCl2, 0.6 mM EGTA, 0.05 mg/ml BSA buffer for 1 hour at room temperature in the presence of GSK3beta (total reaction volume: 100 microliters).
In a second protocol: 4.1 μM of prephosphorylated GS1 peptide and 42 μM ATP (containing 260,000 cpm 33P-ATP) were incubated in 80 mM Mes-NaOH, pH 6.5, 1 mM Mg acetate, 0.5 mM EGTA, 5 mM 2-mercaptoethanol, 0.02% Tween 20, 10% glycerol buffer for 2 hours at room temperature in the presence of GSK3beta.
Inhibitors were solubilized in DMSO (final solvent concentration in the reaction medium, 1%).
The reaction was stopped with 100 microliters of a solution made of 25 g polyphosphoric acid (85% P2O5), 126 ml 85% H3PO4, H2O to 500 ml and then diluted to 1:100 before use. An aliquot of the reaction mixture was then transferred to Whatman P81 cation exchange filters and rinsed with the solution described above. Incorporated 33P radioactivity was determined by liquid scintillation spectrometry.
The phosphorylated GS-1 peptide had the following sequence: […]

Chain of GSK3β (P49841 whole entry, species assumed): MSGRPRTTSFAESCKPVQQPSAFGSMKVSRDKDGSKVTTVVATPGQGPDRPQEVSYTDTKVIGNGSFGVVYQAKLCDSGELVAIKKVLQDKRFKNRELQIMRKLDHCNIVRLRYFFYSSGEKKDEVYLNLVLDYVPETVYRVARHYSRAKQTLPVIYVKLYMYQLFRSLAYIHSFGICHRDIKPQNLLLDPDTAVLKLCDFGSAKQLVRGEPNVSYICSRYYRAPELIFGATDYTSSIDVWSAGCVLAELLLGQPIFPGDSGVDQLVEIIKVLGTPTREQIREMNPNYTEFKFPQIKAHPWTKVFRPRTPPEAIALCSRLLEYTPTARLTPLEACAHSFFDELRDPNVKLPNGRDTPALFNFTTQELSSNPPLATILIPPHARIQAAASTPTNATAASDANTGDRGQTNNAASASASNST

Work on `O=c1cc(-c2ccncn2)nc2n1CCC(C(F)(F)F)N2CCc1ccccc1` (racemic) [compound 12, 9-(2-Phenylethyl)-2-pyrimidin-4-yl-8-(trifluoromethyl)-6,7,8,9-tetrahydro-4H-pyrimido[1,2-a]pyrimidin-4-one] yielded a melting point of 147 to 149 °C.
`O=C(CN1c2nc(-c3ccncn3)cc(=O)n2CCC1C(F)(F)F)c1ccc(-c2ccccc2)cc1` (racemic) [compound 18, 9-(2-biphenyl-4-yl-2-oxoethyl)-2-pyrimidin-4-yl-8-(trifluoromethyl)-6,7,8,9-tetrahydro-4H-pyrimido[1,2-a]pyrimidin-4-one] showed a melting point of 231 to 233 °C.
In the case of `O=C(CN1c2nc(-c3ccncc3)cc(=O)n2CCC1C(F)(F)F)c1ccccc1` (single isomer, unassigned; (-)) [compound 6, (−)-9-(2-Oxo-2-phenyl-ethyl)-2-(4-pyridinyl)-8-(trifluoromethyl)-6,7,8,9-tetrahydro-4H-pyrimido[1,2-a]pyrimidin-4-one hydrochloride (1:1).], the IC50 (GSK3β) is reported as 3 nM.
`N#Cc1ccc(C(=O)CN2c3nc(-c4ccncn4)cc(=O)n3CCC2C(F)(F)F)cc1` (racemic) [compound 17, 9-[2-(4-Cyanophenyl)-2-oxoethyl]-2-pyrimidin-4-yl-8-(trifluoromethyl)-6,7,8,9-tetrahydro-4H-pyrimido[1,2-a]pyrimidin-4-one] showed a melting point of 201 to 203 °C.
In the case of `O=C(CN1c2nc(-c3ccncn3)cc(=O)n2CCC1C(F)(F)F)c1ccc(F)cc1` (racemic) [compound 16, 9-[2-(4-Fluorophenyl)-2-oxoethyl]-2-pyrimidin-4-yl-8-(trifluoromethyl)-6,7,8,9-tetrahydro-4H-pyrimido[1,2-a]pyrimidin-4-one], the melting point is reported as 253 to 255 °C.
`Cc1ccc(C(=O)CN2c3nc(-c4ccncn4)cc(=O)n3CCC2C(F)(F)F)cc1` (racemic) [compound 15, 9-[2-(4-Methylphenyl)-2-oxoethyl]-2-pyrimidin-4-yl-8-(trifluoromethyl)-6,7,8,9-tetrahydro-4H-pyrimido[1,2-a]pyrimidin-4-one] gave a melting point of 239 to 241 °C.
In the case of `O=C(CN1c2nc(-c3ccncn3)cc(=O)n2CCC1C(F)(F)F)c1cccc(Br)c1` (racemic) [compound 13, 9-[2-(3-Bromophenyl)-2-oxoethyl]-2-pyrimidin-4-yl-8-(trifluoromethyl)-6,7,8,9-tetrahydro-4H-pyrimido[1,2-a]pyrimidin-4-one], the melting point is reported as 236 to 238 °C.
`O=c1cc(-c2ccncn2)nc2n1CCC(C(F)(F)F)N2Cc1ccccc1` (racemic) [compound 11, 9-(Phenylmethyl)-2-pyrimidin-4-yl-8-(trifluoromethyl)-6,7,8,9-tetrahydro-4H-pyrimido[1,2-a]pyrimidin-4-one] gave a melting point of 177 to 179 °C.
Work on `O=C(CN1c2nc(-c3ccncc3)c(F)c(=O)n2CCC1C(F)(F)F)c1ccccc1` (racemic) [compound 10, 3-Fluoro-9-(2-oxo-2-phenylethyl)-2-pyridin-4-yl-8-(trifluoromethyl)-6,7,8,9-tetrahydro-4H-pyrimido[1,2-a]pyrimidin-4-one] yielded a melting point of 241 to 242 °C.
`O=C(CN1c2nc(-c3ccncn3)cc(=O)n2CCC1C(F)(F)F)c1cccc(F)c1` (racemic) [compound 14, 9-[2-(3-Fluorophenyl)-2-oxoethyl]-2-pyrimidin-4-yl-8-(trifluoromethyl)-6,7,8,9-tetrahydro-4H-pyrimido[1,2-a]pyrimidin-4-one] showed a melting point of 245 to 247 °C.

Source: patent publication US7393853B2, “Use of substituted 8-Perfluoroalkyl-6,7,8,9-tetrahydropyrimido[1,2-a] pyrimidin-4-one derivatives as therapeutic agents” (Sanofi Aventis, priority 2003, dated 2008)
